“Also recorded” adds a separate entry of the source. Values belong to the compound of their own block, whether it stands above or below them.
How the values were obtained:
DYRK1B = biological target: T1, DYRK1B (Homo sapiens, UniProt Q9Y463); experiment: In vitro DYRK1B kinase assay (33P-ATP, DYRKtide substrate, Reaction Biology Corp.); format: biochemical; conditions: 10 μM ATP, 20 μM DYRKtide
T1 construct: full-; Insect; N-terminal; length; GST; GST (N); purchased Reaction Biology Corp; host or cells: Insect
Method: (§1) The assay was carried out by Reaction Biology Corp., Malverne, Pa., USA according to specifications by Reaction Biology Corp., as detailed herein below and further described in Anastassiadis et al., Nature Biotechnology, 29 (2011) 1039-1045.
(§2) DYRK1A: The substrate DYRKtide (synthetic peptide […]) (SEQ ID NO: 5) was dissolved in freshly prepared Base Reaction Buffer (20 mM Hepes (pH 7.5), 10 mM MgCl2, 1 mM EGTA, 0.02% Brij35, 0.02 mg/ml BSA, 0.1 mM Na3VO4, 2 mM DTT, 1% DMSO) at a concentration of 20 μM. DYRK1A was added to the substrate solution in a concentration of 0.3 nM and gently mixed. Compound dilution series in DMSO were added to the reaction, followed 20 min later by addition of a mixture of ATP and ^33P ATP (0.01 μCi/μl final) to a final concentration of 10 μM. Reactions proceeded at 25° C. for 120 min, followed by spotting onto P81 ion exchange filter paper. Unbound phosphate was removed by extensive washing of the filters in 0.75% phosphoric acid. […] IC50 values and curve fits were obtained using Prism (Graph Pad Software).
The assay for DYRK1B was carried out as described above for DYRK1A, with the exception that instead of DYRK1A, DYRK1B was added to the substrate solution and gently mixed.
(§3) DYRK1A and DYRK1B used in the above assays are further described in the below table: […]

[1] = test system: Hedgehog signaling pathway (GLI1, GLI2, PTCH1 expression) in DAOY cells; experiment: Western blot / qPCR of Hedgehog target genes in SAG-stimulated DAOY medulloblastoma cells; format: cell-based, human; conditions: for HH signaling / GLI target gene activation: SAG stimulated DAOY cells, Harmine 10 or 25 μM, Cpd P 1 or 5 μM; for GLI1 protein expression: Western blot
Method: (§4) DAOY cells (ATCC) were grown in MEM media (PAA Laboratories, Germany) supplemented with 10% fetal bovine serum (FBS) (PAA Laboratories, Germany), penicillin (62.5 μg/ml) and streptomycin ([…]) at 37° C. in an atmosphere containing 5% CO2. BSZ2 cells (So et al., 2006) were grown in 154-CF media (Life Technologies, UK) supplemented with 2% heat inactivated (56° C. for 30 minutes) and chelexed fetal bovine serum (FBS) (PAA Laboratories, Germany) (FBS was chelexed by adding to 50 mL FBS 10 g Chelex 100 (Bio-Rad Laboratories GmbH, Germany) followed by stirring for 60 min at RT; chelexed FBS was sterile filtered prior to use), penicillin (62.5 μg/ml) and streptomycin ([…]) at 37° C. in an atmosphere containing 5% CO2. Panc-1 and A673 cells (ATCC) were grown in DMEM media (PAA Laboratories, Germany) supplemented with 10% fetal bovine serum (FBS) (PAA Laboratories, Germany), penicillin (62.5 μg/ml) and streptomycin ([…]) at 37° C. in an atmosphere containing 5% CO2. For 3-dimensional (3D) cultures, 5×10^3 cells were seeded in 12-well plates in 0.4% select agar on top of 0.5% bottom select agar (Life Technologies, Germany) according to standard protocols of anchorage independent growth assays (Eberl et al., 2012). 3D cultures were grown for 4-6 weeks at 37° C. in a humidified atmosphere containing 5% CO2. Colony formation was documented on a stereomicroscope with Cell^D Image capture system (Olympus) and quantified using Colony Counter Software (Microtec Nition, Japan). SAG (smoothened agonist, N-Methyl-N′-(3-pyridinylbenzyl)-N′-(3-chlorobenzo[b]thiophene-2-carbonyl)-1,4-diaminocyclohexane) (Axxora LCC), Harmine (Fisher Scientific), GDC-0449 (LC Laboratories), GANT61 (Merck Chemicals Ltd.) and 4SC Compound P (4SC Discovery GmbH, Germany) were dissolved in DMSO. The final DMSO concentration in all wild-type DAOY samples was 0.2%, in all other cell line experiments including DAOY shSUFU cells 0.1%.
Total RNA was isolated using TRI-reagent (Molecular Research Center Inc.) followed by LiCl purification step. For this purpose, total RNA was dissolved in 100 mM Hepes pH 7.4/6M Urea and selectively precipitated by adding LiCl to a final concentration of 3M and incubating for 2 h at −20° C. Precipitated and purified RNA was used for cDNA synthesis using Superscript II reverse transcriptase (Life Technologies, Germany) according to the manufacturer's instructions. qPCR was done on a Rotorgene3000 (Qiagen, Germany) using iQ Sybr Green Supermix reagent (Bio-Rad Laboratories, UK). For qPCR analysis the following primer pairs (Microsynth AG, Switzerland) were used:
For Western blot analysis, cells were lysed in Laemmli buffer supplemented with PhosStop (Roche, Germany) and cOmplete EDTA-free Protease Inhibitor Cocktail (Roche, Germany). Proteins were visualized with horseradish peroxidase-conjugated secondary antibodies in combination with enhanced chemiluminescence detection system (GE Health Care, USA).
To address the effect of selected gene perturbations on canonical endogenous Hedgehog signaling in a human cancer cell line, the human medulloblastoma cell line (DAOY, ATCC ident. HTB-186) showing full responsiveness to Hedgehog activation by Smoothened agonist (SAG) as evidenced by activation of the direct Hedgehog target gene GLI1, a reliable and robust indicator of Hedgehog signaling pathway activity (FIG. 1) (Chen et al., 2002).
SAG stimulated DAOY cells were treated with Harmine (7-MeO-1-Me-9H-pyrido[3,4-b]-indole) (dissolved at room temperature as 25 mM stock solution in DMSO and used at final concentration of 10 μM or 25 μM), a naturally occurring DYRK1 inhibitor, as well as with Compound P (Cpd P, dissolved at room temperature in DMSO as 20 mM stock solution and used at final concentration of 1 μM or 5 μM, respectively), a small molecule inhibitor of DYRK1, which is structurally unrelated to Harmine.

DYRK1A = biological target: T2, DYRK1A (Homo sapiens, UniProt Q13627); experiment: In vitro DYRK1A kinase assay (33P-ATP, DYRKtide substrate, Reaction Biology Corp.); format: biochemical; conditions: 10 μM ATP, 20 μM DYRKtide, 0.3 nM enzyme
T2 construct: full-; Insect; N-terminal; length; GST; GST (N); purchased Reaction Biology Corp; host or cells: Insect
Method: as §1, §2, §3

[2] = test system: GLI1 and PTCH1 expression in DAOY shSUFU cells; experiment: Western blot / qPCR in SUFU knockdown (shSUFU) DAOY cells, SMO-independent GLI activation; format: cell-based, human; conditions: for PTCH1 mRNA expression: qPCR
Method: as §4
In the examples of the present invention, RNAi knockdown experiments were facilitated by lentiviral RNAi production and transductions, which were carried out as described in Kasper et al, 2007, which is incorporated herein by reference (Kasper et al., 2007). The following shRNA constructs (Sigma Aldrich mission TRC library) were used and the following abbreviations are used herein: shRNA DYRK1A (TRCN0000000526), shRNA DYRK1B-1 (TRCN0000002139), shRNA DYRK1B-2 (TRCN0000355722), shSUFU (TRCN0000019466) and control scrambled shRNA (SHC002). […] Transduced cells were selected for puromycin resistance prior to further analysis.
Total RNA was isolated using TRI-reagent (Molecular Research Center Inc.) followed by LiCl purification step. […]

[3] = test system: GLI1 protein expression in PANC1 cells; experiment: Western blot of PANC1 pancreatic cancer cells; format: cell-based, human; conditions: for GLI1 protein expression: GDC-0449 0.5 μM
Method: as §4, with “0.1%. […]” for “0.1%.”
(§5) The function of DYRK1 isoforms in SMO-independent/GLI-dependent pancreatic cancer and Ewing's sarcoma (EWS) cell lines PANC1 and A673, respectively, was analyzed. […]

[4] = test system: GLI1 protein expression in A673 cells; experiment: Western blot of Ewing sarcoma cell line A673; format: cell-based, human; conditions: for GLI1 protein expression: GDC-0449 0.5 μM
Method: as §4, with “0.1%. […]” for “0.1%.”
as §5

[5] = test system: tumor-initiating PANC1 pancreatic cancer cells; experiment: Anchorage-independent 3D culture clonal growth (tumorsphere) assay, PANC1; format: cell-based, human; conditions: PANC1, anchorage-independent 3D cultures
Method: (§6) DAOY cells (ATCC) were grown in MEM media (PAA Laboratories, Germany) supplemented with 10% fetal bovine serum (FBS) (PAA Laboratories, Germany), penicillin (62.5 μg/ml) and streptomycin ([…]) at 37° C. in an atmosphere containing 5% CO2. BSZ2 cells (So et al., 2006) were grown in 154-CF media (Life Technologies, UK) supplemented with 2% heat inactivated (56° C. for 30 minutes) and chelexed fetal bovine serum (FBS) (PAA Laboratories, Germany) (FBS was chelexed by adding to 50 mL FBS 10 g Chelex 100 (Bio-Rad Laboratories GmbH, Germany) followed by stirring for 60 min at RT; chelexed FBS was sterile filtered prior to use), penicillin (62.5 μg/ml) and streptomycin ([…]) at 37° C. in an atmosphere containing 5% CO2. Panc-1 and A673 cells (ATCC) were grown in DMEM media (PAA Laboratories, Germany) supplemented with 10% fetal bovine serum (FBS) (PAA Laboratories, Germany), penicillin (62.5 μg/ml) and streptomycin ([…]) at 37° C. in an atmosphere containing 5% CO2. […] Colony formation was documented on a stereomicroscope with Cell^D Image capture system (Olympus) and quantified using Colony Counter Software (Microtec Nition, Japan). […]

[6] = test system: tumor-initiating L3.6pl pancreatic cancer cells; experiment: Anchorage-independent 3D culture clonal growth (tumorsphere) assay, L3.6pl; format: cell-based; conditions: anchorage-independent 3D cultures
[7] = test system: GLI1 expression in BSZ2 cells; experiment: Western blot of GLI1 in Ptch-/- BCC cells (BSZ2); format: cell-based; conditions: mouse Ptch-/- BCC cells (BSZ2)
Method: as §6

[8] = DAOY cells, 100 nM SAG 48 hours, starving conditions

T1 sequence (Q9Y463 whole entry): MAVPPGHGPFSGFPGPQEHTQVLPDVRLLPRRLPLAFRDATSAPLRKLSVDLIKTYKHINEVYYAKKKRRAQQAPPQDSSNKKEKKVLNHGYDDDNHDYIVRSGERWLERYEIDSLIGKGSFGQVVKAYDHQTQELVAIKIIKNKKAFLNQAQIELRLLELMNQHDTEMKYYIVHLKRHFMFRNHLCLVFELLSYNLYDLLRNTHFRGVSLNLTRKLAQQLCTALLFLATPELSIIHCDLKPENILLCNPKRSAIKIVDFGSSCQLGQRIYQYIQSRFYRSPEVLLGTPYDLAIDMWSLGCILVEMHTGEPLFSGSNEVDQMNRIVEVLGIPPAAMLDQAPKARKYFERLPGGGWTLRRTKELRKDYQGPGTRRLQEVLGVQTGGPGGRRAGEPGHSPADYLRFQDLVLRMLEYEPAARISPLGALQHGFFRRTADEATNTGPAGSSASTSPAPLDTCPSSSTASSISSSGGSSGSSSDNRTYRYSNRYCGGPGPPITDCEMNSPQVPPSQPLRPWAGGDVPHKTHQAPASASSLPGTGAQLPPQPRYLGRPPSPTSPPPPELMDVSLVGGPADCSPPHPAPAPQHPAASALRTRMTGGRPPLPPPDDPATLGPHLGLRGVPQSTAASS

IC50 (DYRK1B): 54.8 nM
IC50 (DYRK1A): 22.2 nM
Structure (SMILES): FC(F)(F)c1ccc2[nH]c(Nc3ncccn3)nc2c1 [Compound P, N-(pyrimidin-2-yl)-5-(trifluoromethyl)-1H-benzo[d]imidazol-2-amine]
HH signaling / GLI target gene activation [1]: significant reduction
GLI1 protein expression [1, 8]: significantly inhibited

Structure (SMILES): CN(C)c1ccccc1CN1CCCN(Cc2ccccc2N(C)C)C1c1ccncc1 [GANT61, 2,2′-[[Dihydro-2-(4-pyridinyl)-1,3(2H,4H)-pyrimidinediyl]bis-(methylene)]bis[N,N-dimethylbenzenamine)]
GLI1 mRNA expression [2]: down-regulation
PTCH1 mRNA expression [2]: down-regulation; also recorded: sensitive

Structure (SMILES): CS(=O)(=O)c1ccc(C(=O)Nc2ccc(Cl)c(-c3ccccn3)c2)c(Cl)c1 [GDC-0449, 2-chloro-N-(4-chloro-3-(pyridin-2-yl)phenyl)-4-(methylsulfonyl)benzamide]
GLI1 protein expression [3]: resistance; also recorded: inability
GLI1 protein expression [4]: inability
clonal growth (sphere numbers) [5]: not and did not affect
GLI1 expression (protein) ([2]; Western blot): unaffected; also recorded: resistant
PTCH1 mRNA expression [2]: resistant
GLI1 protein expression [1, 8]: efficiently blocked
clonal growth (sphere numbers) [6]: not

Structure (SMILES): COc1ccc2c(c1)[nH]c1c(C)nccc12 [Harmine, 7-MeO-1-Me-9H-pyrido[3,4-b]-indole]
Beta Catenin and STAT3 expression [3]: essentially unaffected
GLI1 protein expression [3]: reduces; also recorded: reduced levels of GLI1
GLI1 expression [7]: reduced GLI1 expression
Beta Catenin expression [4]: essentially unaffected
GLI1 protein expression [4]: reduces; also recorded: reduced levels of GLI1
clonal growth (sphere numbers) [5]: reduces sphere numbers; also recorded: reduced clonogenic growth
HH signaling / GLI target gene activation [1]: significant reduction
GLI1 protein expression [1, 8]: significantly inhibited
PTCH1 mRNA expression ([1]; qPCR, DAOY cells, 100 nM SAG 48 hours, starving conditions): significantly inhibited
clonal growth (sphere numbers) [6]: reduces sphere numbers
